According to patent US20060069132A1, “Azolecarboxamide herbicides” (priority 2004, published 2006):

Legend:
rice [1] = experiment: Test C flooded paddy test; assay type: in vivo, Oryza sativa
In short: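 Postemergence sprays applied to plants 2 to 18 cm tall (1- to 4-leaf stage); paddy species grown to 2-leaf stage under flooding. After 12 to 14 days in greenhouse, visual rating versus untreated controls on 0–100 scale (0 no effect, 100 complete control).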

velvetleaf = experiment: Test B pre-/postemergence herbicide test; assay type: in vivo, Abutilon theophrasti; conditions: for Velvetleaf plant response rating: postemergence
In short: (§1)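 Flooded paddy rice and barnyardgrass were treated at the 2-leaf stage; upland plantings received compound either on sown seed or on 1- to 4-leaf seedlings. All were kept 13–15 days in a greenhouse and scored visually, 0–100, relative to untreated plants.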

giant foxtail = experiment: Test B pre-/postemergence herbicide test; assay type: in vivo, Setaria faberi; conditions: for Foxtail, Giant plant response rating: postemergence
In short: as §1

blackgrass = experiment: Test B postemergence herbicide test; assay type: in vivo, Alopecurus myosuroides; conditions: postemergence, visual rating, scale 0 (no effect) to 100 (complete control)
In short: (§2)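 After treating 2-leaf paddy plants or 2–18 cm postemergence plants (1 to 4 leaves) with formulated chemical, researchers kept them in a greenhouse for 13–15 days. Effects were judged visually versus controls: 0 indicates none, 100 total control.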

Surinam grass = experiment: Test B pre-/postemergence herbicide test; assay type: in vivo, Urochloa decumbens; conditions: for Surinam Grass plant response rating: postemergence
In short: as §1

corn = experiment: Test B pre-/postemergence herbicide test; assay type: in vivo, Zea mays; conditions: for Corn plant response rating: postemergence
In short: as §1

[2] = system: small flower umbrella sedge; experiment: Test B flooded paddy test; assay type: in vivo, Cyperus difformis; conditions: 1000 g ai/ha, scale 0 to 100 (0 no effect, 100 complete control)
In short: as §2

large crabgrass = experiment: Test B pre-/postemergence herbicide test; assay type: in vivo, Digitaria sanguinalis; conditions: for Crabgrass, Large plant response rating: postemergence
In short: as §1

pigweed = experiment: Test B pre-/postemergence herbicide test; assay type: in vivo, Amaranthus retroflexus; conditions: for Pigweed plant response rating: postemergence
In short: as §1

ducksalad [3] = experiment: Test B flooded paddy test; assay type: in vivo, Heteranthera limosa; conditions: 1000 g ai/ha, scale 0 to 100 (0 no effect, 100 complete control)
In short: as §2

rice [4] = experiment: Test B pre-/postemergence herbicide test; assay type: in vivo, Oryza sativa; conditions: 0 = no effect, 100 = complete control, preemergence
In short: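 Evaluation is visual, comparing treated with control plants on a scale where 0 means no effect and 100 means full control. Treatments were preemergence, or postemergence on seedlings 2–18 cm tall, and held 13–15 days in the greenhouse.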

wild oat = experiment: Test B postemergence herbicide test; assay type: in vivo, Avena fatua; conditions: postemergence
In short: (§3)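 Treated at 2-leaf (paddy) or 1–4-leaf, 2–18 cm (postemergence); greenhouse 13–15 d; visual score vs control, 0 none to 100 complete control; dash = not tested.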

barnyardgrass [5] = experiment: Test B flooded paddy test; assay type: in vivo, Echinochloa crus-galli; conditions: 1000 g ai/ha, scale 0 to 100 (0 no effect, 100 complete control)
In short: as §2

wheat = experiment: Test B postemergence herbicide test; assay type: in vivo, Triticum aestivum; design: key to Wheat plant response rating: 0 = no effect, 100 = complete control; conditions: postemergence
In short: as §3

cocklebur = experiment: Test B pre-/postemergence herbicide test; assay type: in vivo, Xanthium strumarium; conditions: for Cocklebur plant response rating: postemergence, scale 0 (no effect) to 100 (complete control)
In short: as §1

barnyardgrass [6] = experiment: Test C flooded paddy test; assay type: in vivo, Echinochloa crus-galli
In short: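 After a postemergence application at 1 to 4 leaves (plants 2–18 cm high), or at 2 leaves for barnyardgrass in flooded paddy, plants stayed in the greenhouse for 12 to 14 days. Damage was then judged visually relative to control plants, with 100 indicating complete control.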

lambsquarters = experiment: Test B pre-/postemergence herbicide test; assay type: in vivo, Chenopodium album; conditions: for Lambsquarters plant response rating: postemergence
In short: as §1

morningglory = experiment: Test B pre-/postemergence herbicide test; assay type: in vivo, Ipomoea coccinea; conditions: for Morningglory plant response rating: postemergence
In short: as §1

barnyardgrass [7] = experiment: Test B pre-/postemergence herbicide test; assay type: in vivo, Echinochloa crus-galli; conditions: for Barnyardgrass plant response rating: postemergence, scale 0 (no effect) to 100 (complete control)
In short: as §1

rice [8] = experiment: Test B flooded paddy test; assay type: in vivo, Oryza sativa; conditions: 1000 g ai/ha, scale 0 to 100 (0 no effect, 100 complete control)
In short: as §2

ducksalad [9] = experiment: Test C flooded paddy test; assay type: in vivo, Heteranthera limosa
[10] = system: smallflower umbrella sedge; experiment: Test C flooded paddy test; assay type: in vivo, Cyperus difformis
[11] = 125 g ai/ha, scale 0 to 100 (0 no effect, 100 complete control)
[12] = 250 g ai/ha, scale of 0 to 100, 0 is no effect, 100 is complete control
[13] = 500 g ai/ha, visual rating after 12 to 14 days, scale 0 to 100 (0 no effect, 100 complete control)
[14] = 125 g ai/ha, 0 = no effect, 100 = complete control, preemergence
[15] = 500 g ai/ha, visual rating, 0 = no effect, 100 = complete control, preemergence
[16] = 125 g ai/ha, visual rating, scale 0 (no effect) to 100 (complete control)
[17] = 500 g ai/ha, scale 0 to 100, 0 is no effect, 100 is complete control

CCn1nc(C(C)(C)C)cc1C(=O)Nc1cccc(C(=O)N2CCOCC2)n1 [Compound 247]
Rice plant response rating (rice [1]; 62 g ai/ha, scale 0 to 100): 0
Rice plant response rating (rice [1]; [11]): 0
Rice plant response rating (rice [1]; [12]): 20
Plant response rating, Rice (rice [1]; [13]): 75
Velvetleaf plant response rating (0 to 100 scale) (velvetleaf; [14]): 20
Plant response rating, Velvetleaf (velvetleaf; [15]): 100
Velvetleaf plant response rating (velvetleaf; [16]): 30
Velvetleaf plant response rating (velvetleaf; [17]): 70
Foxtail, Giant plant response rating (0 to 100 scale) (giant foxtail; [14]): 10
Plant response rating, Foxtail, Giant (giant foxtail; [15]): 70
Foxtail, Giant plant response rating (giant foxtail; [16]): 10
Foxtail, Giant plant response rating (giant foxtail; [17]): 20
Blackgrass plant response rating (blackgrass; 125 g ai/ha): 0
Blackgrass plant response rating (blackgrass; 500 g ai/ha): 0
Surinam Grass plant response rating (0 to 100 scale) (Surinam grass; [14]): 20
Plant response rating, Surinam Grass (Surinam grass; [15]): 50
Surinam Grass plant response rating (Surinam grass; [16]): 10
Surinam Grass plant response rating (Surinam grass; [17]): 20
Corn plant response rating (0 to 100 scale) (corn; [14]): 0
Plant response rating, Corn (corn; [15]): 30
Corn plant response rating (corn; [16]): 0
Corn plant response rating (corn; [17]): 20
Sedge, Umbrella plant response rating [2]: 70
Crabgrass, Large plant response rating (0 to 100 scale) (large crabgrass; [14]): 20
Plant response rating, Crabgrass, Large (large crabgrass; [15]): 80
Crabgrass, Large plant response rating (large crabgrass; [16]): 10
Crabgrass, Large plant response rating (large crabgrass; [17]): 10
Pigweed plant response rating (0 to 100 scale) (pigweed; [14]): 100
Plant response rating, Pigweed (pigweed; [15]): 100
Pigweed plant response rating (pigweed; [16]): 60
Pigweed plant response rating (pigweed; [17]): 60
Ducksalad plant response rating (ducksalad [3]): 80
Rice plant response rating (0 to 100 scale) (rice [4]; 125 g ai/ha): 10
Plant response rating, Rice (rice [4]; 500 g ai/ha, visual rating): 40
Oat, Wild plant response rating (wild oat; [16]): 0
Oat, Wild plant response rating (wild oat; [17]): 10
Barnyardgrass plant response rating (barnyardgrass [5]): 70
Wheat plant response rating (wheat; [16]): 0
Wheat plant response rating (wheat; [17]): 0
Cocklebur plant response rating (0 to 100 scale) (cocklebur; [14]): 0
Plant response rating, Cocklebur (cocklebur; [15]): 0
Cocklebur plant response rating (cocklebur; 125 g ai/ha, visual rating): 0
Cocklebur plant response rating (cocklebur; 500 g ai/ha, visual rating): 30
Barnyardgrass plant response rating (barnyardgrass [6]; 62 g ai/ha, scale 0 to 100 (0 no effect, 100 complete control)): 0
Barnyardgrass plant response rating (barnyardgrass [6]; [11]): 0
Barnyardgrass plant response rating (barnyardgrass [6]; [12]): 0
Plant response rating, Barnyardgrass (barnyardgrass [6]; [13]): 0
Lambsquarters plant response rating (0 to 100 scale) (lambsquarters; [14]): 80
Plant response rating, Lambsquarters (lambsquarters; [15]): 100
Lambsquarters plant response rating (lambsquarters; [16]): 60
Lambsquarters plant response rating (lambsquarters; [17]): 70
Morningglory plant response rating (0 to 100 scale) (morningglory; [14]): 0
Plant response rating, Morningglory (morningglory; [15]): 10
Morningglory plant response rating (morningglory; [16]): 20
Morningglory plant response rating (morningglory; [17]): 30
Barnyardgrass plant response rating (0 to 100 scale) (barnyardgrass [7]; [14]): 30
Plant response rating, Barnyardgrass (barnyardgrass [7]; [15]): 80
Barnyardgrass plant response rating (barnyardgrass [7]; 125 g ai/ha, visual rating): 0
Barnyardgrass plant response rating (barnyardgrass [7]; 500 g ai/ha, visual rating): 10
Rice plant response rating (rice [8]): 80
Ducksalad plant response rating (ducksalad [9]; 62 g ai/ha, scale 0 to 100): 0
Ducksalad plant response rating (ducksalad [9]; [11]): 0
Ducksalad plant response rating (ducksalad [9]; [12]): 0
Plant response rating, Ducksalad (ducksalad [9]; [13]): 80
Sedge, Umbrella plant response rating ([10]; 62 g ai/ha, scale 0 to 100): 0
Sedge, Umbrella plant response rating [10, 11]: 0
Sedge, Umbrella plant response rating [10, 12]: 15
Plant response rating, Sedge, Umbrella [10, 13]: 75
